Results taken from patent US11529397B2, “Method of treating mucopolysaccharidosis type IVA” (Saint Louis University, priority 2018, dated 2022).

B1: N-acetylgalactosamine-6-sulfatase (protein, listed as Homo sapiens)
chain: APQPPNILLLLMDDMGWGDLGVYGEPSRETPNLDRMAAEGLLFPNFYSANPLCSPSRAALLTGRLPIRNGFYTTNAHARNAYTPQEIVGGIPDSEQLLPELLKKAGYVSKIVGKWHLGHRPQFHPLKHGFDEWFGSPNCHFGPYDNKARPNIPVYRDWEMVGRYYEEFPINLKTGEANLTQIYLQEALDFIKRQARHHPFFLYWAVDATHAPVYASKPFLGTSQRGRYGDAVREIDDSIGKILELLQDLHVADNTFVFFTSDNGAALISAPEQGGSNGPFLCGKQTTFEGGMREPALAWWPGHVTAGQVSHQLGSIMDLFTTSLALAGLTPPSDRAIDGLNLLPTLLQGRLMDRPIFYYRGDTLMAATLGQHKAHFWTWTNSWENFRQGIDFCPGQNVSGVTTHNLEDHTKLPLIFHLGRDPGERFPLSFASAEYQEALSRITSVVQQHQEALVPAQPQLNVCNWAVMNWAPPGCEKLGKCLTPPESIPKKCLWSH
notes: recombinant human GALNS produced in CHO cells, used for ERT and oral tolerance

Experiments:
MKC mice [1] = test: Regulatory markers (CTLA-4, TGF-β) mRNA in Peyer patches after induction of tolerance (Example 21); type: in vivo, mouse; details: real-time PCR, oral 50, 100 or 500 μg
Description: FIG. 25. Up-regulation of TGF-β expression after induction of tolerance in mice PP. […] Control groups were fed with PBS. […] The fold change in expression was related to the values of non-tolerized group. GAPDH was using as a housekeeping gene for the data normalization.
FIG. 26. Up-regulation of CTLA-4 expression after induction of tolerance in mice PP. […] Control groups were fed with PBS. […] The fold change in expression was related to the values of non-tolerized group. GAPDH was using as a housekeeping gene for the data normalization.
Regulatory Markers Evaluation in Peyer Patches (PP) after Induction of Tolerance. […] Most of the mice presented up-regulation of these regulatory molecules when compare with the non-tolerized group.

MKC mice [2] = test: Oral tolerance induction: secreted cytokines after GALNS in vitro stimulation (Examples 15-18); type: in vivo, mouse; details: for IFN-γ secretion after oral treatment: oral 50, 100 or 500 μg, GALNS in vitro stimulation
Description: (§1) Control groups (7 and 8) received PBS alone.
Secreted cytokines (IL-4, IL-5, IL-10, IL-13 and IFN-γ) in the collected supernatants were detected by a bead immunoassay kit which allow the measurement of multiple proteins simultaneously (LUMINEX xMAP Technology, using a Millipore Milliplex™) kit according manufacturer's instructions (FIG. 6).

MKC mice [3] = test: Oral tolerance protocol followed by ERT, overall outcome; type: in vivo, mouse; details: oral administration prior to ERT
Description: as §1

splenocytes [4] = test: Splenocyte proliferation after in vitro stimulation with peptides or GALNS (Examples 2, 4); type: cell-based, mouse; details: for proliferation of splenocytes relative to age of the animal and length of treatment: MKC mice, weeks of infusion
Experimental: Mice (MKC) genetically engineered not to express GALNS were used in these examples. […] 200 μl of the emulsion were administered as a subcutaneous injection. […] Control mice (n=2) were immunized with PBS emulsified in CFA and IFA respectively (Chung et al. (2005) J. Leukoc Biol. 77(6):906-13)). […] A control group (n=5) received PBS (Tomatsu et al. (2008) Hum Mol Genet. 15; 17(6):815-24). […]
Ten days after the last immunization or the last infusion, the mice were euthanized and the spleen was aseptically removed. […] The suspension was centrifuged at 1000 rpm […]. The red blood cells were lysed using a hypotonic lysis buffer (Sigma® R7757). […] Cells were pulsed with 1 JpCi of [3H]thymidine for the last 18 h of incubation. [3H]thymidine incorporation was measured by […] (Trilux Microbeta Counter). The Stimulation Index (SI) was calculated as the mean value of the three wells for each condition divided by the mean value of the unstimulated cells (Mirano-Bascos (2010) J Virol. 84(7):3303-11).

splenocytes [5] = test: Secreted cytokine profile of splenocytes, retest in MKC mice (Example 7); type: cell-based, mouse; details: for IL-5 secretion, ERT treated vs PBS controls, p or significance / IL-13 secretion, ERT treated vs PBS controls, p or significance / profile of secreted cytokines, ERT treated vs PBS treated mice: MKC mice; for levels of IL-4 secretion among the stimuli / levels of IL-5 secretion among the stimuli: MKC mice treated by ERT; for profile of secreted cytokines, ERT treated vs PBS treated mice: 16 i.v. infusions
Experimental: The predicted peptides from Example 1 were reevaluated in MKC mice to reaffirm the selection of peptides 4, 8, and 10. […] A control group received PBS. […] The suspension was centrifuged at 1,000 rpm during 10 minutes. […] The specificity of cellular response against the peptides or the complete enzyme in the in vitro stimulation was determined by splenocyte proliferation or cytokine secretion in ERT treated mice or PBS injected control mice.
Cytokines were determined in the cell culture supernatants. […] Cells were centrifuged at 1,000 rpm during 10 min. Secreted cytokines (IL-4, IL-5, IL-13, and IFN-γ) in the collected supernatants were detected by a bead immunoassay kit which allow the measurement of multiple proteins simultaneously (LUMINEX xMAP Technology, using a Millipore Milliplex™ kit) according to manufacturer's instructions (FIG. 5).

MKC mice [6] = test: Oral tolerance induction: GALNS specific IgG plasma levels by ELISA (Example 19); type: in vivo, mouse
Experimental: as §1
An indirect ELISA technique was used to detect plasma IgG and IgE antibodies against GALNS in treated and untreated mice. […] The plates were blocked with 3% Casein in PBS for 1 h at room temperature in a wet chamber. After two washes, first with TTBS (10 mMTris, 150 mM NaCl, 0.05% Tween20, pH 7.5), and then with TBS (10 mM Tris, 150 mM NaCl, 0.05%, pH 7.5), […] of mice plasma samples diluted 1:500, for IgE and 1:1,000 for IgG, in TTBS were added to the plate and incubated 2 h at 37° C. in a wet chamber. Four washes with TTBS were performed. 100 μl of anti-mouse IgE-HRP (Thermo Scientific) 1:1,000 in TTBS or IgG-Peroxidase (Sigma) 1:5,000 dilution in TTBS were applied. After three washes with TTBS, followed by one wash with TBS, the experiment was developed with the substrate TMB (3,3′,5,5′Tetramethylbenzidine). The enzymatic reaction was stopped with IN HCl solution and the absorbance was measured at 450 nm in a Multiskan® EL800 (Bio-Tek Instruments). Plasma concentrations of IgG antibodies anti-GALNS were derived by extrapolation of the absorbance values from a calibration curve using a mAb anti-GALNS.

splenocytes [7] = test: Splenocytes proliferation in Morquio A mouse models and WT mice treated by ERT (Example 9); type: cell-based
Experimental: (§2) Morquio A mouse models: a). […] 14(22): p. 3321-35).c). Missense mutation mice (Galnstm (C76S) SLU C2) (Tomatsu et al. (2007) Mol Genet Metab., 91(3): p. 251-8), and wild-type C57BL6 mice were treated by ERT. […] A control group received PBS.
(§3) The suspension was centrifuged at 1,000 rpm during 10 minutes.
Thymidine incorporation was measured by β-Scintillation counter (Trilux Microbeta Counter) Mirano-Bascos, et al. (2010) J Virol. 84(7): p. 3303-11).

splenocytes [8] = test: Secreted cytokines of splenocytes in Morquio A mouse models and WT mice treated by ERT (Examples 10-13); type: cell-based; details: for IL-4 secretion / IL-5 secretion / IL-13 secretion: MTol mice
Experimental: as §2, §3
Cytokines were determined in the cell culture supernatants. […] Cells were centrifuged at 1000 rpm during 10 min. Secreted cytokines (IL-4, IL-5, IL-13, and IFN-γ) in the collected supernatants were detected by a bead immunoassay kit which allow the measurement of multiple proteins simultaneously (LUMINEX xMAP Technology, using a Millipore Milliplex™ kit) according to manufacturer's instructions.

[9] = oral 50 μg, one week after the last infusion

| Molecule | TGF-β expression in Peyer patches vs non-tolerized group (MKC mice [1]) | IFN-γ secretion after oral treatment (MKC mice [2]) | inducing oral tolerance to GALNS (MKC mice [3]) | proliferation of splenocytes relative to age of the animal and length of treatment (splenocytes [4]) | IL-5 secretion, ERT treated vs PBS controls, p or significance (splenocytes [5]) | IL-13 secretion, ERT treated vs PBS controls, p or significance (splenocytes [5]) | levels of IL-4 secretion among the stimuli (splenocytes [5]) | levels of IL-5 secretion among the stimuli (splenocytes [5]) | profile of secreted cytokines, ERT treated vs PBS treated mice (splenocytes [5]) | reduction in GALNS specific IgG plasma levels vs non-tolerized mice, p or words (MKC mice [6]; [9]) | reduction in GALNS specific IgG plasma levels vs non-tolerized mice, p or words (MKC mice [6]; oral 100 μg) | splenocytes proliferation, ERT treated vs PBS controls (splenocytes [7]; C2 mice) | splenocytes proliferation, ERT treated vs PBS controls (splenocytes [7]; MKC mice) | splenocytes proliferation, ERT treated vs PBS controls (splenocytes [7]; WT mice) | IFN-γ secretion, MKC vs MTol mice treated by ERT, p or significance (splenocytes [8]) | IL-4 secretion (splenocytes [8]) | IL-5 secretion (splenocytes [8]) | IL-13 secretion (splenocytes [8]) | other results |
| --- | --- | --- | --- | --- | --- | --- | --- | --- | --- | --- | --- | --- | --- | --- | --- | --- | --- | --- | --- |
| QQHQEALVPAQPQLNVTNWA (listed as Homo sapiens) [Peptide I10] | observed in both groups | down-regulated | effective | highest response at 16 weeks | 0.0094 | 0.0002 | Higher levels | Higher levels | statistically significant difference | 0.0086 | same levels or in some cases higher levels | statistically significant difference | statistically significant | statistically significant difference | 0.044 | did not present secretion of IL-4 | did not present secretion of IL-5 | did not show any secretion of IL-13 | CTLA-4 expression in Peyer patches vs non-tolerized group (MKC mice [1]): predominantly up-regulated; splenocyte proliferation response (splenocytes [4]; splenocytes of MKC mice treated by ERT with GALNS, in vitro peptide stimulation): strong response; reduction in GALNS specific IgG plasma levels vs non-tolerized mice, p or words (MKC mice [6]; oral 500 μg): same levels or in some cases higher levels; specific cellular response after splenocytes in vitro stimulation (splenocytes [8]; mice treated by ERT, compared with GALNS stimulation): very similar to the one observed by in vitro stimulation with GALNS |
| B1 | observed in both groups | did not show any modulation | effective | highest response at 16 weeks | 0.0029 | 0.0152 | Higher levels | Higher levels | statistically significant difference | same levels or in some cases higher levels | 0.033 | statistically significant difference | statistically significant | statistically significant difference | not statistically significant | did not present secretion of IL-4 | did not present secretion of IL-5 | did not show any secretion of IL-13 | IL-10 secretion after oral treatment (MKC mice [2]; mice treated orally): down-regulation of IL-10 |
